We go through eleven compounds from patent publication US20250205203A1, “SUBSTITUTED PYRAZOLYL COMPOUNDS AND METHODS OF USE THEREOF” (Chinook Therapeutics Canada, Inc., priority 2020, published 2025).

Data set [1] has as its target T1, human recombinant C-terminal His-tagged LDHA (Homo sapiens (Human), UniProt P00338). Nature of the data set: Human LDHA enzyme assay. The format is biochemical. The settings on record: 50 μM pyruvate, 50 μM NADH, 1% DMSO. As to the method:
Biochemical assays include recombinant human LDH enzymatic assays in which purified recombinant human lactate dehydrogenase A (LDHA) is incubated with test compound, substrate pyruvate and coenzyme […], and its enzymatic activity measured by the formation of NAD upon conversion of pyruvate to lactate.
(§1) Compounds were dissolved in DMSO and preincubated with human recombinant C-terminal His-tagged LDHA (0.070 μg/mL) for 10 min at room temperature in assay buffer consisting of 50 mM Tris (pH 7.5) and 100 mM NaCl in black walled, clear bottom, non-binding 96-well plates. Equal volumes of substrate solution containing 100 μM of pyruvate and 100 μM of NADH in assay buffer was added to each well (final concentration 0.035 μg/mL enzyme, 50 μM pyruvate, 50 μM NADH, and 1% DMSO). For human serum albumin (HSA) shift assay, the compounds were preincubated with the enzyme in assay buffer containing 20% HSA before substrate addition (final concentration 10% HSA). The reaction was monitored at 340 nm on a plate reader (Molecular Devices) in kinetic mode for 15 min. The rate of the reaction was determined by plotting absorbance vs time.

Data set [2] has as its target T1, human recombinant C-terminal His-tagged LDHA. Nature of the data set: Human LDHA enzyme assay, human serum albumin (HSA) shift assay. The format is biochemical. Particulars: final concentration 10% HSA. As to the method:
as §1

The subject of data set [3] is primary mouse hepatocytes. Nature of the data set: Primary mouse hepatocyte assay (lactate production). Particulars: wild type C57BL/6 hepatocytes, in presence of pyruvate. The format is cell-based. As to the method:
LDH inhibitors can also be evaluated in an ex vivo assay consisting of primary mouse hepatocytes. Following isolation, viable wild-type murine hepatocytes are incubated with test compound in presence of pyruvate. Compound potency to modulate LDH enzymatic activity is then evaluated by measuring the conversion of pyruvate to lactate by the cells.
Compounds were evaluated in an ex vivo assay consisting of fresh primary mouse hepatocytes. Hepatocytes were isolated from wild type mice (C57BL/6NCrl from Charles River Labs) using a two-step collagenase perfusion technique which involves a sequential perfusion of anesthetized mice with Hanks' balanced salt solution and collagenase. Following isolation, viable wild type hepatocytes are incubated with test compound in presence of pyruvate and compound potency is evaluated by measuring the lactate produced by the cells using liquid chromatography coupled to mass spectrometry. Chromatographic separation was achieved on an XDB-C18 4.6×50 mm column (Agilent, Cat #927975-902) at a flow rate of 1 mL/min. Mobile phase A consisted of 0.1% formic acid in water and mobile phase B consisted of acetonitrile. A gradient program was initiated starting at 5% B which was held for 1 minutes, then ramped from 5% to 95% B over 1 minute. After holding at 95% B for 1 minute, the program changed back to 5% B. The column was equilibrated with 5% B for 1.5 minutes before the next injection. The mass spectrometer was operated in negative mode with electrospray ionization. The following transition along with their collision energy (CE) were used: 89→43 (CE: −16 V) for lactate and 92→45 (CE: −16 V) for ^13C3-Lactate (internal standard).

Data set [4] in a line: Liver-targeted tissue distribution profile study in rats. The format is in vivo, rat. The settings on record: PO 10 mg/kg, SD rats. As to the method: Plasma and liver (target organ) concentrations of test compounds were determined in rats following a single per os (PO) administration of the test compounds. Male Sprague Dawley rats (6-8 weeks of age, Charles River Labs) were fasted overnight and a single dose of test compounds (10 mg/kg; as a suspension in 0.5% methyl cellulose) was administered by PO gavage. Rats were then sacrificed at 4 and 24 h after administration of the test compounds, and plasma and liver tissue samples were collected. Liver tissue samples were homogenized in 5 volumes of water:acetonitrile (50/50; v/v) mixture using a bead mill homogenizer. Plasma and liver homogenate samples were processed by protein precipitation using acetonitrile and the concentrations of the test compounds were determined by liquid chromatography-tandem mass spectrometry (SciEx triple quad 5500+ with Exion UPLC).

The conditions of data set [5]: PH1 patients; cited from earlier work.

Some results are limits rather than exact numbers.

In general, IC50 refers to the concentration at which inhibition is half-maximal. `NS(=O)(=O)c1ccc(Cc2c(-c3ccc(F)c(C#CC4(O)CCC4)c3)nn(-c3nc(C(=O)O)cs3)c2CC2CC2)cc1F` [Example 4, 2-(5-(cyclopropylmethyl)-3-(4-fluoro-3-((1-hydroxycyclobutyl)ethynyl)phenyl)-4-(3-fluoro-4-sulfamoylbenzyl)-1H-pyrazol-1-yl)thiazole-4-carboxylic acid]: the values for the IC50 in data set [1], in data set [2] and in data set [3] were under 1 nM, 1 to 10 nM and under 100 nM, respectively.

As for `CC1(C#Cc2cccc(-c3nn(-c4nc(C(=O)O)cs4)c(CC4CC4)c3Cc3ccc(S(N)(=O)=O)c(F)c3)c2)COC1` [Example 8, 2-(5-(cyclopropylmethyl)-4-(3-fluoro-4-sulfamoylbenzyl)-3-(3-((3-methyloxetan-3-yl)ethynyl)phenyl)-1H-pyrazol-1-yl)thiazole-4-carboxylic acid], the figures for the IC50 in data set [1], in data set [2] and in data set [3] were under 1 nM, 1 to 10 nM and under 100 nM, respectively.

Turning to `NS(=O)(=O)c1ccc(Cc2c(-c3cccc(C#CC4(O)COC4)c3)nn(-c3nc(C(=O)O)cs3)c2CC2CC2)cc1F` [Example 9, 2-(5-(cyclopropylmethyl)-4-(3-fluoro-4-sulfamoylbenzyl)-3-(3-((3-hydroxyoxetan-3-yl)ethynyl)phenyl)-1H-pyrazol-1-yl)thiazole-4-carboxylic acid], in data set [1], the IC50 was under 1 nM. The IC50 in data set [2] lay in the range of 1 to 10 nM. For the same compound, the IC50 in data set [3] is under 100 nM. Also, in data set [4], the “Measured Compound Concentration Liver-4 h” value is “+++ (5 μM≥+++>1 μM)”, the “Measured Compound Concentration Liver-24 h” value is recorded as “++ (1 μM≥++>0.25 μM)”, the “Measured Compound Concentration Plasma-4 h” value is reported as “+ (0.25 μM≥+>0 μM)” and the “Measured Compound Concentration Plasma-24 h” value is given as “+ (0.25 μM≥+>0 μM)”.

As for `NS(=O)(=O)c1ccc(Cc2c(-c3ccc(F)c(C#CC4(O)CC4)c3)nn(-c3nc(C(=O)O)cs3)c2CC2CC2)cc1F` [Example 5, 2-(5-(cyclopropylmethyl)-3-(4-fluoro-3-((1-hydroxycyclopropl)ethynyl)phenyl)-4-(3-fluoro-4-sulfamoylbenzyl)-1H-pyrazol-1-yl)thiazole-4-carboxylic acid], the IC50 in data set [1] is under 1 nM.

Turning to `NS(=O)(=O)c1ccc(Cc2c(-c3ccc(F)c(C#CC4CC4)c3)nn(-c3nc(C(=O)O)co3)c2CC2CC2)cc1F` [Example 10, 2-(3-(3-(Cyclopropylethynyl)-4-fluorophenyl)-5-(cyclopropylmethyl)-4-(3-fluoro-4-sulfamoylbenzyl)-1H-pyrazol-1-yl)oxazole-4-carboxylic acid], the IC50 in data set [1] is under 1 nM; in data set [2], 1 to 10 nM; in data set [3], under 100 nM.

As to `CC(C)(O)C#Cc1cc(-c2nn(-c3nc(C(=O)O)cs3)c(CC3CC3)c2Cc2ccc(S(N)(=O)=O)c(F)c2)ccc1F` [Example 2, 2-(5-(Cyclopropylmethyl)-3-(4-fluoro-3-(3-hydroxy-3-methylbut-1-yn-1-yl)phenyl)-4-(3-fluoro-4-sulfamoylbenzyl)-1H-pyrazol-1-yl)thiazole-4-carboxylic acid], the IC50 in data set [1] was under 1 nM. In addition, in data set [2], the IC50 was under 1 nM. The concentration for half-maximal inhibition (IC50) in data set [3] is under 100 nM. Besides, in data set [4], the “Measured Compound Concentration Liver-4 h” value is on record as “+++ (5 μM≥+++>1 μM)”, the “Measured Compound Concentration Liver-24 h” value was “+++ (5 μM≥+++>1 μM)”, the “Measured Compound Concentration Plasma-4 h” value is “+ (0.25 μM≥+>0 μM)” and the “Measured Compound Concentration Plasma-24 h” value is given as “+ (0.25 μM≥+>0 μM)”.

Turning to `CC1(C#Cc2cc(-c3nn(-c4nc(C(=O)O)cs4)c(CC4CC4)c3Cc3ccc(S(N)(=O)=O)c(F)c3)ccc2F)COC1` [Example 3, 2-(5-(cyclopropylmethyl)-3-(4-fluoro-3-((3-methyloxetan-3-yl)ethynyl)phenyl)-4-(3-fluoro-4-sulfamoylbenzyl)-1H-pyrazol-1-yl)thiazole-4-carboxylic acid], the IC50 in data set [1] was under 1 nM; in data set [2], 1 to 10 nM; in data set [3] it was under 100 nM.

`Cc1ncc(CO)c(CO)c1O` [Pyridoxine]: the lowering urinary oxalate entry in data set [5] was “approximately 30%”.

On to `NS(=O)(=O)c1ccc(Cc2c(-c3cccc(C#CC4COC4)c3)nn(-c3nc(C(=O)O)cs3)c2CC2CC2)cc1F` [Example 7, 2-(5-(cyclopropylmethyl)-4-(3-fluoro-4-sulfamoylbenzyl)-3-(3-(oxetan-3-ylethynyl)phenyl)-1H-pyrazol-1-yl)thiazole-4-carboxylic acid], for which the IC50 in data set [1] is under 1 nM. The IC50 in data set [2] lay in the range of 1 to 10 nM. For the same compound, the IC50 in data set [3] was under 100 nM. In data set [4], the “Measured Compound Concentration Liver-4 h” value was “++++ (++++>5 μM)”, the “Measured Compound Concentration Liver-24 h” value is “+++ (5 μM≥+++>1 μM)”, the “Measured Compound Concentration Plasma-4 h” value is recorded as “+ (0.25 μM≥+>0 μM)” and the “Measured Compound Concentration Plasma-24 h” value is given as “+ (0.25 μM≥+>0 μM)”.

In the case of `CC(C)(O)C#Cc1cccc(-c2nn(-c3nc(C(=O)O)cs3)c(CC3CC3)c2Cc2ccc(S(N)(=O)=O)c(F)c2)c1` [Example 6, 2-(5-(cyclopropylmethyl)-4-(3-fluoro-4-sulfamoylbenzyl)-3-(3-(3-hydroxy-3-methylbut-1-yn-1-yl)phenyl)-1H-pyrazol-1-yl)thiazole-4-carboxylic acid], the IC50 in data set [1] was under 1 nM. In addition, the IC50 in data set [2] was 1 to 10 nM. The IC50 in data set [3] was under 100 nM. In data set [4], the “Measured Compound Concentration Liver-4 h” value is “++++ (++++>5 μM)”, the “Measured Compound Concentration Liver-24 h” value is recorded as “+++ (5 μM≥+++>1 μM)”, the “Measured Compound Concentration Plasma-4 h” value was “+ (0.25 μM≥+>0 μM)” and the “Measured Compound Concentration Plasma-24 h” value is on record as “+ (0.25 μM≥+>0 μM)”.

For the compound `NS(=O)(=O)c1ccc(Cc2c(-c3ccc(F)c(C#CC4(O)COC4)c3)nn(-c3nc(C(=O)O)cs3)c2CC2CC2)cc1F` [Example 1, 2-(5-(Cyclopropylmethyl)-3-(4-fluoro-3-((3-hydroxyoxetan-3-yl)ethynyl)phenyl)-4-(3-fluoro-4-sulfamoylbenzyl)-1H-pyrazol-1-yl)thiazole-4-carboxylic acid], in data set [1], the IC50 is under 1 nM. Moreover, the IC50 in data set [2] lay in the range of 1 to 10 nM. In data set [3], the IC50 was under 100 nM. Moreover, in data set [4], the “Measured Compound Concentration Liver-4 h” value is “+++ (5 μM≥+++>1 μM)”, the “Measured Compound Concentration Liver-24 h” value is listed as “++ (1 μM≥++>0.25 μM)”, the “Measured Compound Concentration Plasma-4 h” value is on record as “+ (0.25 μM≥+>0 μM)” and the “Measured Compound Concentration Plasma-24 h” value is recorded as “+ (0.25 μM≥+>0 μM)”.
